The source of these data is patent US9278081B2, “Extracts from Eucalyptus camaldulensis for the treatment of hyperglycemia and hypertension” (The University of the West Indies, priority 2012, dated 2016).

Data set [1] concerns rats. Put plainly: Haemodynamic parameters (blood pressure and heart rate), non-invasive CODA machine. Type of data set: in vivo. The conditions noted are these: for effect on mean arterial blood pressure (in words): vs DMSO; for effect on systolic blood pressure (in words): vs DMSO and captopril. The text has this:
A non-invasive method was used to measure the blood pressure and heart rate of the rats using the CODA machine from Kent Scientific Corporation. The rats were placed in a restraint (rat holder), to reduce agitation, and then placed on a warming pad of the machine (to reduce anxiety). The occlusion and volume pressure recording cuffs (O-cuff and VPR-cuff respectively) were placed onto the tail of the animal in that order respectively, in order to record the readings. The O-cuff terminates blood flow to the tail and then dilates slowly allowing for the physiological readings to be obtained from the returning blood flow, which is determined by the VPR sensor. The VPR-cuff is then used to measure the arterial pulsations as blood returns to the tail and it begins to swell. As the tail begins to swell the systolic blood pressure is measured, while the diastolic blood pressure is calculated when swelling stops.
The rats were trained within the restrain for three to four days prior to the measurements in order to reduce errors and an additional acclimatization period was done to allow the rats to relax prior to the basal blood pressure readings. […] The systolic and diastolic pressures, mean arterial pressure and the heart rate per minute was measured and about 20-25 readings were recorded and timed for approximately 30 minute including an allowance for acclimatization. […] Non-invasive blood pressure Measurement in Mice. […] Humana Press, which is herein incorporated by reference in its entirety.
A non-invasive method was used to measure the blood pressure and heart rate of the rats using the CODA-6-non-invasive machine from Kent Scientific Corporation. The rats were placed in a restraint (rat holder), to reduce agitation, which was then placed on a warming pad of the machine (to reduce anxiety). The occlusion and volume pressure recording cuffs (O-cuff and VPR-cuff respectively) were placed on to the tail of the animal in that order respectively, in order to record the readings. The O-cuff terminates blood flow to the tail and then dilates slowly allowing for the physiological readings to be obtained from the returning blood flow which is determined by the VPR sensor. The VPR-cuff then measured the arterial pulsations as blood returns to the tail and begins to swell. As the tail begins to swell the systolic blood pressure is measured, while the diastolic blood pressure is calculated when swelling stops.
The systolic and diastolic blood pressure, mean arterial pressure and the heart rate per minute was measured and about 20-25 readings were recorded and timed for approximately 30 minutes including acclimatization (FIGS. 17-28). […] Non-invasive blood pressure Measurement in Mice. […] Humana Press, which is herein incorporated by reference in its entirety.

In data set [2] the test system is normoglycaemic Sprague-Dawley rats. The experiment in a line: Oral Glucose Tolerance Test (OGTT), samples administered intravenously. Type of data set: in vivo. Conditions: for effect on blood glucose concentration (in words): IV OGTT vs DMSO control and/or metformin; for Hypoglycaemic effect compared with control: combinations of oleic:palmitic acids, IV OGTT vs DMSO. Here is the method:
Crude hexane, ethyl acetate, and methanol extracts (50 mg/kg BW) were administered intravenously to normoglycaemic Sprague-Dawley rats. The Oral Glucose Tolerance Test (OGTT) was then carried out using the Accu-Check Advantage II glucose kit to examine their effect on blood glucose concentration. […] A comparison was carried out using metformin (25 mg/kg BW).
Crude hexane, ethyl acetate, and methanol extracts (50 mg/kg BW) were administered intravenously to normoglycaemic Sprague-Dawley rats. The Oral Glucose Tolerance Test (OGTT) was then carried out using the Accu-Check Advantage II glucose kit to examine their effect on blood glucose concentration.
Crude hexane, ethyl acetate, and methanol extracts (50 mg/kg BW) were administered intravenously to normoglycaemic Sprague-Dawley rats.
The dosage of the extracted fr1dbe (30 mg/kg BW) and the glucose loads (1.75 g/kg BW were administered to the rats intravenously and orally, respectively. The extract was administered intravenously in order to reduce the amounts of sample that were used for the bioassays. The volume of the negative control/carrier agent (DMSO) used was approximately 0.3 mL.
In order to determine the efficacy of the isolated compounds, a known oral hypoglycaemic drug, metformin was used to do a comparison. Metformin was obtained from Sigma-Aldrich (Cat. No. d15, 095-9) and OGTTs were done via intravenous (FIGS. 7-13) and oral administration (FIGS. 14-16).

Data set [3] concerns rats. The experiment in a line: Post-prandial blood insulin level, Mercodia ELISA. Conditions: 30 mg/kg BW IV in DMSO. Type of data set: in vivo. The method, then: This was carried out using the Mercodia ELISA Diagnostic kit in order to deduce the plasma insulin and glucagon levels respectively. These levels were used to determine the effect of the compound fr1dbe, on glucose homeostasis, when compared with a positive methformin and a DMSO negative control.
The samples were administered intravenously and orally at their respective dosages. After 15 minutes 75 mg/kg BW of sodium pentabarbitol was administered to the rats via an intraperitoneal injection. Blood samples were then obtained from the renal artery of the rats and collected in the (red) vacutainer for the serum sample. The samples were then centrifuged at 3,000 r.p.m. for 10 minutes and stored at −20° C. until used.
The Mercodia ELISA is a direct technique utilizing two monoclonal antibodies of the insulin molecule, one of which binds to the microtitre well, while the other binds to the insulin within the sample. When the unbound antibody is removed, a reaction with 3,3′,5,5′-tetramethylbenzidine aids in detection and spectophotometric analysis after the reaction is stopped.
The enzyme conjugate solution and wash buffer solution were prepared prior to the experiment. 10 μL of the calibrators, samples and controls were pipetted into the microtitre wells in duplicate. […] The ELISA plate was read immediately at an optical density at 450 nm and the results calculated. […]

Another data set is described as follows: Solubility. Type of data set: physicochemical.
The conditions of data set [4]: general description of eicosane; cited from earlier work.
In data set [5] the test system is normoglycaemic Sprague-Dawley rats. The experiment in a line: Oral Glucose Tolerance Test (OGTT), samples administered orally (gavage). Type of data set: in vivo. The conditions noted are these: 900 mg/kg BW orally vs water. The method, then:
The hypoglycaemic principles of E. camaldulensis were also administered orally. Preliminary OGTT experiments at 200 and 500 mg/kg BW were done, and as a result the dosage was increased to 700 and 900 mg/kg BW. The glucose tolerance curves (GTC) were obtained similarly to the OGTT done via intravenous administration, in that the compound was administered after the fasting blood sample was obtained, however via a oral gavage (FIGS. 14-16).
A comparison was done of the oral administration of the fatty acids with the respective oil on the blood glucose concentration by using the OGTT done in order to deduce their effect. Oleic and palmitic acids are major constituents of olive oil and coconut oil respectively. As such, comparisons were made after OGTTs were carried out to determine the effect of olive oil, coconut oil and the combined product (2.3 olive oil:1 coconut oil), on blood glucose concentration.
An analysis of glucose tolerance curves to compare olive oil, FR2DBS (oleic acid) and the combined oil (FR2DBW; 2.3 olive oil:1 coconut oil) at 900 mg/kg BW vs the control (water) all administered orally, was conducted. […] See also FIG. 29.

[6] abbreviates: 30 mg/kg BW, 10 minute interval.
[7] abbreviates: 30 mg/kg BW, 15 minute interval.
The mark [8] stands for this setting: 50 mg/kg BW, 10 minute interval.
Where [9] appears, read: 50 mg/kg BW, 20 minute interval.
Setting [10] is: 30 mg/kg BW intravenously, 90 minute interval (glycaemic peak).
Where [11] appears, read: 30 mg/kg BW, 20 minute interval.

Where “and” joins values, the source holds several entries; their conditions need not be identical. Identical values can stand only once. Entries after “also recorded” stand apart in the source; their conditions may differ.

As to `CCCCCCCCCCCCCCCCCCCC` [FR1DBE, eicosane], in the data set with rats [1] (setting [6]), the heart rate came to 386 ± 7.91 beats/min and the “systolic blood pressure (SBP)” value is reported as 118.42±1.87 mmHg. In the data set with rats [1] (setting [7]), the “diastolic blood pressure (DBP)” value was determined as 84.0±0.98 mmHg and the “systolic blood pressure (SBP)” value is reported as 122.21±1.1 mmHg. In addition, in the data set with rats [1] (30 mg/kg BW), the “effect on mean arterial blood pressure (in words)” value is “significantly reduced” and the “effect on systolic blood pressure (in words)” value is listed as “significantly reduced”. This compound also returned a blood glucose concentration in data set [2] (30 mg/kg BW intravenously, 60 minutes interval (fasting region)) of 3.7 ± 0.154 mmol/L. Moreover, the blood glucose concentration in data set [2] (30 mg/kg BW intravenously, 90 minute interval (glycaemic peak), listed as fr1dbe) was found to be 4.71 ± 1.43 mmol/L. This compound returned a blood insulin level with rats [3] (after 3½ hours of administration (210 minute interval)) of 0.259 ± 0.03 µg/L. Further, the blood insulin level in the data set with rats [3] (after the 90 minute interval) was 0.214 ± 0.02 µg/L. Moreover, in the data set “Solubility”, the solubility in water entry is recorded as “not soluble in water”. In addition, the solubility in alcohol entry in data set [4] is reported as “soluble in alcohol”.

Turning to `CCCCCCCCCCCCCCCC(=O)O` [FR1DBY, palmitic acid], in the data set with rats [1] (setting [8]), the “diastolic blood pressure (DBP)” value came out at 81.93±1.74 mmHg, the heart rate is 372.4 ± 3.07 beats/min, the “mean arterial pressure (MAP)” value is on record as 95.67±1.77 mmHg and the “systolic blood pressure (SBP)” value was 123.42±1.27 mmHg. Also, in the data set with rats [1] (50 mg/kg BW, 15 minute interval), the “systolic blood pressure (SBP)” value worked out at 139.0±3.5 mmHg. Also, in the data set on rats [1] (setting [9]), the “diastolic blood pressure (DBP)” value was found to be 93.79±3.14 mmHg and the “mean arterial pressure (MAP)” value stood at 104.23±3.08 mmHg. Besides, the blood glucose concentration in data set [2] (setting [10]) worked out at 5.4 ± 0.163 mmol/L. Besides, in data set [2] (50 mg/kg BW IV, 90 minute interval, vs DMSO), the “difference in blood glucose from the control” value was 1.06 mmol/L. In addition, the blood glucose concentration in data set [2] (50 mg/kg BW intravenously, 90 minutes interval) stood at 5.26 ± 0.183 mmol/L. In addition, in data set [2], the “effect on blood glucose concentration (in words)” value was “same effect as Metformin” and the “Hypoglycaemic effect compared with control” value is reported as “Significant”. Further, the “effect on blood glucose concentration (in words)” value in data set [2] (listed as commercially available palmitic acid) was “able to significantly lower the blood glucose concentration”. Also, the “more effective dosage (hypoglycaemic effect)” value in data set [2] (IV OGTT, dose comparison) was determined as 50 mg/kg BW. Besides, the “effect on blood glucose level (in words)” value in data set [5] is listed as “able to significantly lower the area under the glucose tolerance curve; also recorded: able to lower the blood glucose concentration”.

On to `CCCCCCCC/C=C\CCCCCCCC(=O)O` [FR2DBS, oleic acid], for which, in the data set with rats [1] (setting [6]), the “diastolic blood pressure (DBP)” value is listed as 93.42±1.74 mmHg and the heart rate is 389 ± 7.27 beats/min. In addition, the “diastolic blood pressure (DBP)” value with rats [1] (setting [7]) stood at 93.21±1.33 mmHg. In addition, the “mean arterial pressure (MAP)” value in the data set on rats [1] (setting [11]) came to 100.43±1.39 mmHg. In the data set with rats [1] (30 mg/kg BW), the “effect on mean arterial blood pressure (in words)” value is given as “significant decrease”; the “effect on systolic blood pressure (in words)” value is “very low and comparable to the effect caused by captopril”. The compound also displayed a blood glucose concentration in data set [2] (setting [10]) of 5.23 ± 0.14 mmol/L. Further, in data set [2], the “effect on blood glucose concentration (in words)” value is given as “significantly lower than the control” and the “Hypoglycaemic effect compared with control” value is reported as “Significant”. The “effect on blood glucose level (in words)” value in data set [5] was “able to lower the blood glucose concentration”. The “effect on blood glucose level (in words)” value in data set [5] (listed as oleic acid) is given as “able to reduce the post-prandial glucose level”.

Consider `C[C@H](CS)C(=O)N1CCC[C@H]1C(=O)O` [captopril, reference compound], for which, in the data set on rats [1] (setting [6]), the “diastolic blood pressure (DBP)” value is 91.09±1.90 mmHg and 91±1.90 mmHg; the heart rate is 413 beats/min and 412 beats/min; the “mean arterial pressure (MAP)” value is 110.86±1.71 mmHg; the “systolic blood pressure (SBP)” value was 131.35±1.50 mmHg and 130.92±1.50 mmHg and 130.93±1.50 mmHg. Moreover, in the data set on rats [1] (setting [7]), the “diastolic blood pressure (DBP)” value is reported as 91.19±1.37 mmHg and the heart rate was 401.0±6.28 BPM. In the data set on rats [1] (setting [11]), the “diastolic blood pressure (DBP)” value is given as 93.30±1.58 mmHg and the “mean arterial pressure (MAP)” value amounted to 105.07±2.06 mmHg. Besides, the heart rate in the data set with rats [1] (30 mg/kg BW, first 10 minutes) is 399.93±6.91 BPM.

With `CN(C)C(=N)N=C(N)N` [metformin, reference compound], in data set [2] (25 mg/kg BW IV, 90 minute interval, vs DMSO), the “decrease in the blood sugar level compared with the control” value turned out to be 1.26 mmol/L. Further, the blood glucose concentration in data set [2] (25 mg/kg BW intravenously, 90 minute interval) was 5.07 ± 0.089 mmol/L and 5.07 ± 0.09 mmol/L; in data set [2] (25 mg/kg BW intravenously, 90 minute interval, listed as Metformin) it was 5.06 ± 0.089 mmol/L and 5.07 ± 0.089 mmol/L.
